≈ marks a conversion by molar mass, not a printed value.

The first test relates to Streptococcus mutans. Kind of test: Antibacterial activity against Streptococcus mutans MTCC 497 assessed as zone of inhibition at 100 ug/well measured after 24 hrs by agar well diffusion method. Format: functional. As to conditions: MTCC 497, 24 h, read-out: DIZ. In general terms: In agar diffusion tests the substance spreads into inoculated agar from a disc or well.
As for `CC1(C)O[C@H]2O[C@@H]3COB(c4cccc(/C=N/c5ccc(Cl)cc5)c4)O[C@@H]3[C@H]2O1`, the zone of inhibition at 100 µg/disc turned out to be 16 mm.

With `CC1(C)O[C@H]2O[C@@H]3COB(c4cccc(/C=N/c5ccc(F)cc5)c4)O[C@@H]3[C@H]2O1`, the zone of inhibition at 100 µg/disc stood at 18 mm.

In the case of `CC1(C)O[C@H]2O[C@@H]3COB(c4ccccc4C=O)O[C@@H]3[C@H]2O1`, the zone of inhibition at 100 µg/disc stood at 20 mm.

The next test relates to Candida albicans. Kind of test: Antifungal activity against Candida albicans MTCC 3017 assessed as zone of inhibition at 100 ug/well measured after 48 hrs by agar well diffusion method. As to conditions: MTCC 3017, 48 h, read-out: DIZ. Type of test: functional.
As to `CC1(C)O[C@H]2O[C@@H]3COB(c4cccc(/C=N/c5ccc(Cl)cc5)c4)O[C@@H]3[C@H]2O1`, the zone of inhibition at 100 µg/disc amounted to 11 mm.

Take `CC1(C)O[C@H]2O[C@@H]3COB(c4cccc(/C=N/c5ccc(F)cc5)c4)O[C@@H]3[C@H]2O1`: the zone of inhibition at 100 µg/disc was 19 mm.

Take `CC1(C)O[C@H]2O[C@@H]3COB(c4ccccc4C=O)O[C@@H]3[C@H]2O1`: the zone of inhibition at 100 µg/disc is 26 mm.

The subject of another test is Salmonella paratyphi. The test can be described thus: Antibacterial activity against Salmonella paratyphi measured after 24 hrs by NCCL protocol based broth dilution method. Type of test: functional, Salmonella enterica subsp. enterica serovar Paratyphi A. Particulars: Salmonella enterica. On the technique in general: In broth dilution the organism is exposed to a series of concentrations in liquid medium.
In general, MIC refers to the lowest concentration found to suppress growth. The low end stands for inhibition by little substance, the high end for a need for much substance. In turn, `CC1(C)O[C@H]2O[C@@H]3COB(c4cccc(/C=N/c5ccc(Cl)cc5)c4)O[C@@H]3[C@H]2O1` came in with an MIC of 250 µg/mL (≈ 604 µM).

`CC1(C)O[C@H]2O[C@@H]3COB(c4cccc(/C=N/c5ccc(F)cc5)c4)O[C@@H]3[C@H]2O1`: the MIC is 31.2 µg/mL (≈ 78.7 µM).

In turn, `CC1(C)O[C@H]2O[C@@H]3COB(c4ccccc4C=O)O[C@@H]3[C@H]2O1` came in with an MIC of 31.2 µg/mL (≈ 103 µM).

The next test has as its system Salmonella typhi. The test can be described thus: Antibacterial activity against Salmonella typhi measured after 24 hrs by NCCL protocol based broth dilution method. Format: functional, Salmonella enterica subsp. enterica serovar Typhi. As to conditions: Salmonella enterica.
As for `CC1(C)O[C@H]2O[C@@H]3COB(c4cccc(/C=N/c5ccc(Cl)cc5)c4)O[C@@H]3[C@H]2O1`, the lowest concentration to inhibit growth (MIC) was 31.2 µg/mL (≈ 75.5 µM).

Turning to `CC1(C)O[C@H]2O[C@@H]3COB(c4cccc(/C=N/c5ccc(F)cc5)c4)O[C@@H]3[C@H]2O1`, 31.2 µg/mL (≈ 78.7 µM) was the least that counted as inhibitory (MIC).

For the molecule `CC1(C)O[C@H]2O[C@@H]3COB(c4ccccc4C=O)O[C@@H]3[C@H]2O1`, it took 31.2 µg/mL (≈ 103 µM) to inhibit growth (MIC).

The subject of another test is Salmonella typhi. The test can be described thus: Antibacterial activity against Salmonella typhi assessed as zone of inhibition at 100 ug/well measured after 24 hrs by agar well diffusion method. Type of test: functional, Salmonella enterica subsp. enterica serovar Typhi. Particulars: Salmonella enterica, read-out: DIZ.
As to `CC1(C)O[C@H]2O[C@@H]3COB(c4cccc(/C=N/c5ccc(Cl)cc5)c4)O[C@@H]3[C@H]2O1`, the zone of inhibition at 100 µg/disc was determined as 25 mm.

In the case of `CC1(C)O[C@H]2O[C@@H]3COB(c4cccc(/C=N/c5ccc(F)cc5)c4)O[C@@H]3[C@H]2O1`, the zone of inhibition at 100 µg/disc was 24 mm.

On to `CC1(C)O[C@H]2O[C@@H]3COB(c4ccccc4C=O)O[C@@H]3[C@H]2O1`, for which the zone of inhibition at 100 µg/disc came to 26 mm.

The subject of another test is Micrococcus luteus. The test can be described thus: Antibacterial activity against Micrococcus luteus MTCC 106 assessed as zone of inhibition at 100 ug/well measured after 24 hrs by agar well diffusion method. Format: functional. Particulars: MTCC 106, 24 h, read-out: DIZ.
Regarding `CC1(C)O[C@H]2O[C@@H]3COB(c4cccc(/C=N/c5ccc(Cl)cc5)c4)O[C@@H]3[C@H]2O1`, the zone of inhibition at 100 µg/disc came to 17 mm.

Regarding `CC1(C)O[C@H]2O[C@@H]3COB(c4cccc(/C=N/c5ccc(F)cc5)c4)O[C@@H]3[C@H]2O1`, the zone of inhibition at 100 µg/disc came to 11 mm.

As to `CC1(C)O[C@H]2O[C@@H]3COB(c4ccccc4C=O)O[C@@H]3[C@H]2O1`, the zone of inhibition at 100 µg/disc worked out at 18 mm.

The next test concerns Salmonella paratyphi. Kind of test: Antibacterial activity against Salmonella paratyphi assessed as zone of inhibition at 100 ug/well measured after 24 hrs by agar well diffusion method. Format: functional, Salmonella enterica subsp. enterica serovar Paratyphi A. As to conditions: Salmonella enterica, read-out: DIZ.
Turning to `CC1(C)O[C@H]2O[C@@H]3COB(c4cccc(/C=N/c5ccc(Cl)cc5)c4)O[C@@H]3[C@H]2O1`, the zone of inhibition at 100 µg/disc was 13 mm.

Consider `CC1(C)O[C@H]2O[C@@H]3COB(c4cccc(/C=N/c5ccc(F)cc5)c4)O[C@@H]3[C@H]2O1`, for which the zone of inhibition at 100 µg/disc is 21 mm.

In the case of `CC1(C)O[C@H]2O[C@@H]3COB(c4ccccc4C=O)O[C@@H]3[C@H]2O1`, the zone of inhibition at 100 µg/disc was 21 mm.

For another test, the system named is Streptococcus mutans. Kind of test: Antibacterial activity against Streptococcus mutans MTCC 497 measured after 24 hrs by NCCL protocol based broth dilution method. Type of test: functional. Particulars: MTCC 497, 24 h.
For the molecule `CC1(C)O[C@H]2O[C@@H]3COB(c4cccc(/C=N/c5ccc(Cl)cc5)c4)O[C@@H]3[C@H]2O1`, the lowest concentration to inhibit growth (MIC) was 125 µg/mL (≈ 302 µM).

With `CC1(C)O[C@H]2O[C@@H]3COB(c4cccc(/C=N/c5ccc(F)cc5)c4)O[C@@H]3[C@H]2O1`, the MIC stood at 62.5 µg/mL (≈ 157 µM).

For `CC1(C)O[C@H]2O[C@@H]3COB(c4ccccc4C=O)O[C@@H]3[C@H]2O1`, inhibition of growth (MIC) required 62.5 µg/mL (≈ 206 µM).

In the next test the test system is Staphylococcus aureus. Kind of test: Antibacterial activity against Staphylococcus aureus MTCC 3160 measured after 24 hrs by NCCL protocol based broth dilution method. Type of test: functional. As to conditions: MTCC 3160, 24 h.
`CC1(C)O[C@H]2O[C@@H]3COB(c4cccc(/C=N/c5ccc(Cl)cc5)c4)O[C@@H]3[C@H]2O1` came in with an MIC of 250 µg/mL (≈ 604 µM).

`CC1(C)O[C@H]2O[C@@H]3COB(c4cccc(/C=N/c5ccc(F)cc5)c4)O[C@@H]3[C@H]2O1`: the MIC was found to be 31.2 µg/mL (≈ 78.7 µM).

Take `CC1(C)O[C@H]2O[C@@H]3COB(c4ccccc4C=O)O[C@@H]3[C@H]2O1`: 62.5 µg/mL (≈ 206 µM) was the least that counted as inhibitory (MIC).

The next test has as its system Micrococcus luteus. The test can be described thus: Antibacterial activity against Micrococcus luteus MTCC 106 measured after 24 hrs by NCCL protocol based broth dilution method. Particulars: MTCC 106, 24 h. Format: functional.
Regarding `CC1(C)O[C@H]2O[C@@H]3COB(c4cccc(/C=N/c5ccc(Cl)cc5)c4)O[C@@H]3[C@H]2O1`, it took 125 µg/mL (≈ 302 µM) to inhibit growth (MIC).

Regarding `CC1(C)O[C@H]2O[C@@H]3COB(c4cccc(/C=N/c5ccc(F)cc5)c4)O[C@@H]3[C@H]2O1`, the MIC was found to be 125 µg/mL (≈ 315 µM).

Turning to `CC1(C)O[C@H]2O[C@@H]3COB(c4ccccc4C=O)O[C@@H]3[C@H]2O1`, the MIC was determined as 62.5 µg/mL (≈ 206 µM).

For the next test, the system named is Candida albicans. The test can be described thus: Antifungal activity against Candida albicans MTCC 3017 measured after 48 hrs by NCCL protocol based broth dilution method. Format: functional. As to conditions: MTCC 3017, 48 h.
For the molecule `CC1(C)O[C@H]2O[C@@H]3COB(c4cccc(/C=N/c5ccc(Cl)cc5)c4)O[C@@H]3[C@H]2O1`, the MIC came to 250 µg/mL (≈ 604 µM).

Molecule `CC1(C)O[C@H]2O[C@@H]3COB(c4cccc(/C=N/c5ccc(F)cc5)c4)O[C@@H]3[C@H]2O1` had an MIC of 62.5 µg/mL (≈ 157 µM). Against the preceding molecule, the MIC is about 4-fold lower.

In turn, `CC1(C)O[C@H]2O[C@@H]3COB(c4ccccc4C=O)O[C@@H]3[C@H]2O1` returned an MIC of 31.2 µg/mL (≈ 103 µM).

The next test deals with Aspergillus fumigatus. Kind of test: Antifungal activity against Aspergillus fumigatus MTCC 343 assessed as zone of inhibition at 100 ug/well measured after 48 hrs by agar well diffusion method. Particulars: MTCC 343, 48 h, read-out: DIZ. Type of test: functional.
In the case of `CC1(C)O[C@H]2O[C@@H]3COB(c4cccc(/C=N/c5ccc(Cl)cc5)c4)O[C@@H]3[C@H]2O1`, the zone of inhibition at 100 µg/disc amounted to 0 mm.

With `CC1(C)O[C@H]2O[C@@H]3COB(c4cccc(/C=N/c5ccc(F)cc5)c4)O[C@@H]3[C@H]2O1`, the zone of inhibition at 100 µg/disc was determined as 0 mm.

As to `CC1(C)O[C@H]2O[C@@H]3COB(c4ccccc4C=O)O[C@@H]3[C@H]2O1`, the zone of inhibition at 100 µg/disc was found to be 25 mm.

The next test has as its system Klebsiella pneumoniae. Kind of test: Antibacterial activity against Klebsiella pneumoniae MTCC 3384 assessed as zone of inhibition at 100 ug/well measured after 24 hrs by agar well diffusion method. Format: functional. As to conditions: MTCC 3384, 24 h, read-out: DIZ.
Consider `CC1(C)O[C@H]2O[C@@H]3COB(c4cccc(/C=N/c5ccc(Cl)cc5)c4)O[C@@H]3[C@H]2O1`, for which the zone of inhibition at 100 µg/disc amounted to 22 mm.

As for `CC1(C)O[C@H]2O[C@@H]3COB(c4cccc(/C=N/c5ccc(F)cc5)c4)O[C@@H]3[C@H]2O1`, the zone of inhibition at 100 µg/disc is 16 mm.

Turning to `CC1(C)O[C@H]2O[C@@H]3COB(c4ccccc4C=O)O[C@@H]3[C@H]2O1`, the zone of inhibition at 100 µg/disc worked out at 27 mm.

The subject of a further test is Aspergillus fumigatus. The test can be described thus: Antifungal activity against Aspergillus fumigatus MTCC 343 measured after 48 hrs by NCCL protocol based broth dilution method. Type of test: functional. As to conditions: MTCC 343, 48 h.
For the molecule `CC1(C)O[C@H]2O[C@@H]3COB(c4cccc(/C=N/c5ccc(Cl)cc5)c4)O[C@@H]3[C@H]2O1`, the MIC came out at 500 µg/mL (≈ 1210 µM).

Take `CC1(C)O[C@H]2O[C@@H]3COB(c4cccc(/C=N/c5ccc(F)cc5)c4)O[C@@H]3[C@H]2O1`: the lowest concentration to inhibit growth (MIC) was 250 µg/mL (≈ 629 µM).

Take `CC1(C)O[C@H]2O[C@@H]3COB(c4ccccc4C=O)O[C@@H]3[C@H]2O1`: inhibition of growth (MIC) required 31.2 µg/mL (≈ 103 µM).

For another test, the system named is Klebsiella pneumoniae. The test can be described thus: Antibacterial activity against Klebsiella pneumoniae MTCC 3384 measured after 24 hrs by NCCL protocol based broth dilution method. As to conditions: MTCC 3384, 24 h. Type of test: functional.
Regarding `CC1(C)O[C@H]2O[C@@H]3COB(c4cccc(/C=N/c5ccc(Cl)cc5)c4)O[C@@H]3[C@H]2O1`, inhibition of growth (MIC) required 62.5 µg/mL (≈ 151 µM).

`CC1(C)O[C@H]2O[C@@H]3COB(c4cccc(/C=N/c5ccc(F)cc5)c4)O[C@@H]3[C@H]2O1` displayed an MIC of 62.5 µg/mL (≈ 157 µM).

The molecule `CC1(C)O[C@H]2O[C@@H]3COB(c4ccccc4C=O)O[C@@H]3[C@H]2O1` came in with an MIC of 15.6 µg/mL (≈ 51.4 µM).

Another test relates to Staphylococcus aureus. Kind of test: Antibacterial activity against Staphylococcus aureus MTCC 3160 assessed as zone of inhibition at 100 ug/well measured after 24 hrs by agar well diffusion method. Type of test: functional. Particulars: MTCC 3160, 24 h, read-out: DIZ.
With `CC1(C)O[C@H]2O[C@@H]3COB(c4cccc(/C=N/c5ccc(Cl)cc5)c4)O[C@@H]3[C@H]2O1`, the zone of inhibition at 100 µg/disc was determined as 15 mm.

As to `CC1(C)O[C@H]2O[C@@H]3COB(c4cccc(/C=N/c5ccc(F)cc5)c4)O[C@@H]3[C@H]2O1`, the zone of inhibition at 100 µg/disc came to 20 mm.

With `CC1(C)O[C@H]2O[C@@H]3COB(c4ccccc4C=O)O[C@@H]3[C@H]2O1`, the zone of inhibition at 100 µg/disc came out at 20 mm.
